According to patent publication US12590100B2, “Tetrahydro-spiroindoline-pyrrolopyrrole-triones inhibitors of the NRF2-β-TrCP interaction for use in the treatment of fatty liver disease” (Universidad Autonoma De Madrid, priority 2021, dated 2026):

What was measured:
β-TrCP-NRF2 interaction = assay: NRF2 levels after LY294002 (PI3K inhibition, GSK-3β activation) in Keap1−/− MEFs; format: cell-based, mouse; details: PHAR 10 μM 1 h, then LY294002 20 μM 15-240 min
NRF2 = assay: NRF2/HO-1 induction in Keap1−/− versus Keap1+/+ MEFs; format: cell-based, mouse; details: PHAR 10 μM, 8 h
Description: FIG. 5. PHAR-mediated NRF2 activation is independent of KEAP1 and is responsible for the increase in the expression of its targets. (A-D) Serum-deprived MEFs originating from wild-type (WT) or KEAP1 null (Keap1−/−) mice were treated with 10 μM of PHAR for the indicated times. 0.1% DMSO was used as a vehicle. A), representative immunoblots of NRF2, HO1, KEAP1, LAMINB, and GAPDH as loading controls. B) and C), densitometric analysis of NRF2 and HO1 protein levels of the representative immunoblots of (A), expressed as a ratio of NRF2/LAMINB or HO1/GAPDH. The data is depicted as means±SEM (n=3). Statistical analysis was performed with two-way ANOVA followed by the Bonferroni test to check inter-group differences. D), the mRNA levels of Hmox-1, Nqo1, Aox1, Gc1c, and Gc1m were determined after 8 h of 10 μM PHAR by means of qRT-PCR and normalized by means of average Gapdh, Tbp, and β-actin. The data is depicted as mean±SEM (n=3). […] F) and G), densitometric analysis of NRF2 and HO1 protein levels of the representative immunoblots of (E), expressed as a ratio of NRF2/LAMINB or HO1/GAPDH. […] H), the mRNA levels of Hmox-1, Nqo1, Aox1, Gclc, and Gclm were determined after 8 h of 10 μM PHAR by means of qRT-PCR and normalized by means of average Gapdh, Tbp, and β-actin. […]

cell viability = assay: MTT assay of cell viability/toxicity; format: cell-based; details: all doses used
STAM mice (NAFLD) = assay: STAM fatty liver model, treatment from NASH stage (week 8) to week 10; format: in vivo, mouse
Source text: FIG. 13. PHAR slows fatty liver progression. The progressive damage of liver cells as a consequence of their metabolic alteration and chronic low-grade inflammation leads to their progression towards fibrosis and the consequent loss of liver function. The present invention makes it possible to treat patients diagnosed with fatty liver to prevent its progression towards more severe forms of liver disease such as fibrosis and cirrhosis. A) Scheme of the liver damage progression model. B) Representative spectra derived from MRI studies. At starting point (week 8; W8, NASH inflammation), mice subjected to the STAM protocol had fatty liver imitating the status of newly diagnosed patients. At this point, treatment with PHAR (50 mg/kg i.p; 5 days per week) began until week 10 (W10, fibrosis). C) standardized quantification of the amount of liver fat per mouse measured by MRI. Statistical analysis was performed using a two-way ANOVA followed by a Bonferroni test to compare the differences between treatments in control and STAM groups. **p<0.01. D) profiles of evolution of the amount of liver fat per mouse measured by MRI at week 8 (NASH) and week 10 (fibrosis). E) H&E histochemical analysis of mice treated with PHAR vs vehicle in control mice and in STAM mice together with oil red staining for determination of liver fat levels. F) levels of transcripts corresponding to the metabolism of fatty acids (Cpt1a, Scd1, Cd36 and Fasn). G) Levels of transcripts corresponding to pro-inflammatory cytokines (Tnf, Il6 and Infg) and anti-inflammatory (Il10 and Il4). For F and G, relative mRNA levels were determined by qRT-PCR and normalized by averaging Gapdh, Tbp, and β-actin. Statistical analysis was performed using a bidirectional ANOVA followed by a Bonferroni test to compare the differences between PHAR-treated mice vs vehicle-treated mice in the control and STAM models. *p<0.05; ***p<0.001.
After seeing the beneficial role of PHAR in the prevention of NASH, we analyzed its role in progression of liver damage. The progressive damage of hepatocytes is a consequence of their metabolic alteration and chronic low-grade inflammation and oxidative stress (FIG. 13A). We treated mice in the NASH stage (week 8), 5 days a week with an IP dose of 50 mg/kg PHAR until week 10. The analysis of fat accumulation was measured by MRI both at the initial point of treatment and at the end point (FIG. 13B). Vehicle-treated STAM mice underwent a progressive accumulation of lipids. […] Therefore, PHAR reduces low-grade chronic inflammation and liver fat accumulation.

[1] = STAM mice, week 8 to week 10, liver mRNA

SMILES: O=C1[C@@H]2[C@H](Cc3c[nH]c4ccccc34)N[C@]3(C(=O)Nc4ccc(Cl)cc43)[C@@H]2C(=O)N1c1ccc2c(c1)OCCO2 [PHAR]
- NRF2 levels under LY294002 after PHAR pre-treatment (β-TrCP-NRF2 interaction): prevented LY294002-induced NRF2 degradation, but furthermore favored NRF2 accumulation
- mRNA levels of other NRF2 targets in Keap1−/− compared with Keap1+/+ MEFs (NRF2): The same result was obtained
- toxicity (cell viability, MTT) (cell viability): does not present toxicity at any of the doses used
- liver fat (oil red staining) (STAM mice (NAFLD); STAM mice, week 8 to week 10, IP 50 mg/kg): protection against liver fat accumulation
- lipid accumulation in liver by MRI (STAM mice (NAFLD); STAM mice, week 8 to week 10, IP 50 mg/kg 5 days a week): significant protection against lipid accumulation
- expression of Cpt1a (lipid catabolism) (STAM mice (NAFLD); [1]): increasing the expression of Cpt1a
- expression of Fasn (lipid synthesis) (STAM mice (NAFLD); [1]): decrease in the expression of Fasn
- expression of anti-inflammatory cytokines (STAM mice (NAFLD); [1]): promotes an increase in anti-inflammatory cytokines
- expression of pro-inflammatory cytokines (STAM mice (NAFLD); [1]): attenuates the expression of pro-inflammatory cytokines
- liver histology (H&E) (STAM mice (NAFLD); control and STAM mice, week 8 to week 10, IP 50 mg/kg): normal liver histology
